Measurements from patent US8846947B2, “Benzimidazoles and related analogs as sirtuin modulators” (GlaxoSmithKline LLC, priority 2008, dated 2014).

Biological target: T1, SIRT1 (Homo sapiens, UniProt Q96EB6)
T1 sequence (Q96EB6 1-747): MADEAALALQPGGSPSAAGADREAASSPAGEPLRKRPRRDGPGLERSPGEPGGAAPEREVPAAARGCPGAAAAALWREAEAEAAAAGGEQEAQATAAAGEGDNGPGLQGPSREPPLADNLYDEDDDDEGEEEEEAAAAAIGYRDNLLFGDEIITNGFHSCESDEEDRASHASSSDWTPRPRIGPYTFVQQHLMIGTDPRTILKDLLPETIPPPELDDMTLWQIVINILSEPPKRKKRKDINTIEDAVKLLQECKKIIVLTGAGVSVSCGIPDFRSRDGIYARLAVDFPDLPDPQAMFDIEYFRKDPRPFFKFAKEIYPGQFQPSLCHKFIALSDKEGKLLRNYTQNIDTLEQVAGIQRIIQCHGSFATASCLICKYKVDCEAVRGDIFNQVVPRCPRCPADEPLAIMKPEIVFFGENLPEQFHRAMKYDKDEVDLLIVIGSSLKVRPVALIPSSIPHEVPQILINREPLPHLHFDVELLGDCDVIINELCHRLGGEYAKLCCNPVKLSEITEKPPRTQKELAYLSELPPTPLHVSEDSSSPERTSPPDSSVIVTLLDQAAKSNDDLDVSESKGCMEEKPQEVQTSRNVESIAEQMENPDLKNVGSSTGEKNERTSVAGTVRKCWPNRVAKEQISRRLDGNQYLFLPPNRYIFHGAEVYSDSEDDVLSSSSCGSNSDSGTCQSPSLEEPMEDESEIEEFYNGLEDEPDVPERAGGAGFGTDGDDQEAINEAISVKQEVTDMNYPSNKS
Experiment: Mass spectrometry based SIRT1 deacetylase activation assay (acetylated p53-derived peptide substrate)
Format: biochemical
Settings: 0.5 μM peptide substrate, 120 μM βNAD+, 10 nM SIRT1, 25 minutes at 25° C.

| SMILES | EC1.5 | Fold Act. (percent maximum fold activation) |
| --- | --- | --- |
| O=C(Nc1cccnn1)c1cncc2[nH]c(-c3ccc(Cl)cc3C(F)(F)F)nc12 [Compound 651] | A (EC1.5<1.0 uM) | A (Fold activation >200%) |
| Cc1cnc(NC(=O)c2cncc3[nH]c(-c4ccc(Cl)cc4C(F)(F)F)nc23)s1 [Compound 652] | A (EC1.5<1.0 uM) | A (Fold activation >200%) |
| O=C(Nc1nccs1)c1cncc2[nH]c(-c3cc(F)ccc3C(F)(F)F)nc12 [Compound 653] | B (EC1.5 1-25 uM) | A (Fold activation >200%) |
| O=C(Nc1ccccn1)c1cncc2[nH]c(-c3cc(F)ccc3C(F)(F)F)nc12 [Compound 654] | B (EC1.5 1-25 uM) | A (Fold activation >200%) |
| O=C(Nc1cccnc1)c1cncc2[nH]c(-c3cc(F)ccc3C(F)(F)F)nc12 [Compound 655] | A (EC1.5<1.0 uM) | A (Fold activation >200%) |
| O=C(Nc1cccnn1)c1cncc2[nH]c(-c3cc(F)ccc3C(F)(F)F)nc12 [Compound 656] | A (EC1.5<1.0 uM) | A (Fold activation >200%) |
| Cc1cnc(NC(=O)c2cncc3[nH]c(-c4cc(F)ccc4C(F)(F)F)nc23)s1 [Compound 657] | A (EC1.5<1.0 uM) | A (Fold activation >200%) |
| CS(=O)(=O)c1ccc(F)cc1-c1nc2c(C(=O)Nc3ccccn3)cccc2[nH]1 [Compound 658] | A (EC1.5<1.0 uM) | A (Fold activation >200%) |
| CS(=O)(=O)c1ccc(F)cc1-c1nc2c(C(=O)Nc3cccnc3)cccc2[nH]1 [Compound 659] | B (EC1.5 1-25 uM) | A (Fold activation >200%) |
| O=C(Nc1cccc(OC2CCNC2)c1)c1cccc2[nH]c(-c3ccc(F)cc3C(F)(F)F)nc12 (stereo not shown) [Compound 660] | A (EC1.5<1.0 uM) | A (Fold activation >200%) |
| O=C(Nc1cccc(OC2CCNCC2)c1)c1cccc2[nH]c(-c3ccc(F)cc3C(F)(F)F)nc12 [Compound 661] | A (EC1.5<1.0 uM) | A (Fold activation >200%) |
| C[C@@H]1CN(c2ccc(C(F)(F)F)c(-c3nc4c(C(=O)Nc5nccs5)cccc4[nH]3)c2)C[C@H](C)O1 [Compound 662] | B (EC1.5 1-25 uM) | A (Fold activation >200%) |
| C[C@@H]1CN(c2ccc(C(F)(F)F)c(-c3nc4c(C(=O)Nc5ccccn5)cccc4[nH]3)c2)C[C@H](C)O1 [Compound 663] | C (EC1.5 >25 uM) | B (Fold Activation <200%) |
| O=C(Nc1nccs1)c1cccc2[nH]c(-c3cc(N4CCCC4)ccc3C(F)(F)F)nc12 [Compound 664] | C (EC1.5 >25 uM) | B (Fold Activation <200%) |
| O=C(Nc1nccs1)c1cccc2[nH]c(-c3cc(N4CC[C@H](F)C4)ccc3C(F)(F)F)nc12 [Compound 665] | A (EC1.5<1.0 uM) | A (Fold activation >200%) |
| O=C(Nc1ccccn1)c1cccc2[nH]c(-c3cc(N4CC[C@H](F)C4)ccc3C(F)(F)F)nc12 [Compound 666] | B (EC1.5 1-25 uM) | B (Fold Activation <200%) |
| O=C(Nc1nccs1)c1cccc2[nH]c(-c3cc(N4CC[C@@H](F)C4)ccc3C(F)(F)F)nc12 [Compound 667] | B (EC1.5 1-25 uM) | A (Fold activation >200%) |
| O=C(Nc1ccccn1)c1cccc2[nH]c(-c3cc(N4CC[C@@H](F)C4)ccc3C(F)(F)F)nc12 [Compound 668] | A (EC1.5<1.0 uM) | B (Fold Activation <200%) |
| FC(F)(F)c1cc(Cl)ccc1-c1nc2c(NCc3cccnc3)cccc2[nH]1 [Compound 669] | C (EC1.5 >25 uM) | B (Fold Activation <200%) |
| Fc1ccc(C(F)(F)F)c(-c2nc3c(NCc4cccnc4)cccc3[nH]2)c1 [Compound 670] | C (EC1.5 >25 uM) | B (Fold Activation <200%) |
| c1ccc(-n2nccc2-c2nc3c(NCc4cccnc4)cccc3[nH]2)cc1 [Compound 671] | C (EC1.5 >25 uM) | B (Fold Activation <200%) |

| SMILES | EC1.5 | Fold Act. (percent maximum fold activation) |
| --- | --- | --- |
| O=C(Nc1cccc(CN2CCOCC2)n1)c1cccc2[nH]c(-c3ccccc3C(F)(F)F)nc12 [Compound 672] | A (EC1.5<1.0 uM) | A (Fold activation >200%) |
| O=C(Nc1ccc(CN2CCOCC2)cn1)c1cccc2[nH]c(-c3ccccc3C(F)(F)F)nc12 [Compound 673] | A (EC1.5<1.0 uM) | A (Fold activation >200%) |
| O=C(Nc1ccc(CN2CCOCC2)nc1)c1cccc2[nH]c(-c3ccccc3C(F)(F)F)nc12 [Compound 674] | A (EC1.5<1.0 uM) | A (Fold activation >200%) |
| O=C(Nc1cccc(CN2CCOCC2)n1)c1cccc2[nH]c(-c3ccc(Cl)cc3C(F)(F)F)nc12 [Compound 675] | A (EC1.5<1.0 uM) | A (Fold activation >200%) |
| O=C(Nc1ccc(CN2CCOCC2)cn1)c1cccc2[nH]c(-c3ccc(Cl)cc3C(F)(F)F)nc12 [Compound 676] | A (EC1.5<1.0 uM) | A (Fold activation >200%) |
| O=C(Nc1cccc(CN2CCOCC2)n1)c1cccc2[nH]c(-c3cc(F)ccc3C(F)(F)F)nc12 [Compound 677] | A (EC1.5<1.0 uM) | A (Fold activation >200%) |
| O=C(Nc1cccc(OCC(O)CO)c1)c1cccc2[nH]c(-c3ccc(Cl)cc3C(F)(F)F)nc12 (stereo not shown) [Compound 678] | A (EC1.5<1.0 uM) | A (Fold activation >200%) |
| O=C(Nc1cccc(OCC(O)CO)c1)c1cccc2[nH]c(-c3ccc(F)cc3C(F)(F)F)nc12 (stereo not shown) [Compound 679] | A (EC1.5<1.0 uM) | A (Fold activation >200%) |
| O=C(Nc1cccc(OCC(O)CO)c1)c1cccc2[nH]c(-c3cc(F)ccc3C(F)(F)F)nc12 (stereo not shown) [Compound 680] | A (EC1.5<1.0 uM) | A (Fold activation >200%) |
| O=C(Nc1nc(CN2CCOCC2)cs1)c1cccc2[nH]c(-c3ccc(F)cc3C(F)(F)F)nc12 [Compound 681, 2-(4-fluoro-2-(trifluoromethyl)phenyl)-N-(4-(morpholinomethyl)thiazol-2-yl)-1H-benzo[d]imidazole-4-carboxamide] | A (EC1.5<1.0 uM) | A (Fold activation >200%) |
| O=C(Nc1cccc(CN2CCNCC2)n1)c1cccc2[nH]c(-c3ccccc3C(F)(F)F)nc12 [Compound 682] | A (EC1.5<1.0 uM) | A (Fold activation >200%) |
| O=C(Nc1ccc(CN2CCCC2)nc1)c1cccc2[nH]c(-c3ccccc3C(F)(F)F)nc12 [Compound 683] | A (EC1.5<1.0 uM) | A (Fold activation >200%) |
| O=C(Nc1ccc(CN2CCOCC2)nc1)c1cccc2[nH]c(-c3ccc(Cl)cc3C(F)(F)F)nc12 [Compound 684] | A (EC1.5<1.0 uM) | A (Fold activation >200%) |
| O=C(Nc1ccc(CN2CCCC2)nc1)c1cccc2[nH]c(-c3ccc(Cl)cc3C(F)(F)F)nc12 [Compound 685] | A (EC1.5<1.0 uM) | A (Fold activation >200%) |
| O=C(Nc1ccc(CN2CCOCC2)nc1)c1cccc2[nH]c(-c3cc(F)ccc3C(F)(F)F)nc12 [Compound 686, 2-(5-fluoro-2-(trifluoromethyl)phenyl)-N-(6-(morpholinomethyl)pyridin-3-yl)-1H-benzo[d]imidazole-4-carboxamide] | A (EC1.5<1.0 uM) | A (Fold activation >200%) |
| O=C(Nc1ccc(CN2CCCC2)nc1)c1cccc2[nH]c(-c3cc(F)ccc3C(F)(F)F)nc12 [Compound 687] | A (EC1.5<1.0 uM) | A (Fold activation >200%) |
| O=C(Nc1ccccn1)c1cccc2[nH]c(-c3cc(N4CCCC4)ccc3C(F)(F)F)nc12 [Compound 688] | C (EC1.5 >25 uM) | B (Fold Activation <200%) |
| O=C(Nc1nccs1)c1cc(N2CCOCC2)cc2[nH]c(-c3ccc(F)cc3C(F)(F)F)nc12 [Compound 689] | A (EC1.5<1.0 uM) | A (Fold activation >200%) |
| O=C(Nc1ccccn1)c1cc(N2CCOCC2)cc2[nH]c(-c3ccc(F)cc3C(F)(F)F)nc12 [Compound 690] | A (EC1.5<1.0 uM) | A (Fold activation >200%) |
| O=C(Nc1cccnc1)c1cc(N2CCOCC2)cc2[nH]c(-c3ccc(F)cc3C(F)(F)F)nc12 [Compound 691] | A (EC1.5<1.0 uM) | A (Fold activation >200%) |
